Key:
[1] = system: MIA PaCa-2 cells; experiment: MTT proliferation assay, pancreatic carcinoma MIA PaCa-2; format: cell-based; conditions: Homo sapiens, Tumor Cell: Pancreatic (MIA PaCa-2), concentrations tested in microM
Text: (§1) We first screened compounds derived from the known pharmacopeia and from a selected natural product collection using two types of assays: (a) measurements of post-translational modifications of proteins; (b) measurements of protein-protein interactions. For the purpose of measuring post-translational modifications of proteins, we used immunofluorescence methods combined with phospho-specific antibodies. For the purpose of quantifying and localizing protein complexes we used fluorescence methods based on protein-fragment complementation assays (PCA). ‘Hits’ from the initial screens were then tested for antiproliferative activity in up to 5 different human tumor cell lines. […] For drugs with antiproliferative activity in PC-3 cells, dose-response curves were generated to determine the EC50 for antiproliferative activity and additional tumor cell lines were tested to determine the breadth of activity. Methods for assay development, validation, screening, and testing of antiproliferative activity are described below.
(§2) Cells were maintained in various media as follows: A549, LoVo and PC-3 (Ham's F12K medium with 2 mM L-glutamine and 1.5 g/L sodium bicarbonate), MIA PaCa-2 (Dulbecco's modified Eagle's medium with 4 mM L-glutamine and 4.5 g/L glucose), U87-MG (MEM+Earle's BSS). Medium for each cell line was supplemented with 10% FBS and […] Penecillin/Streptomycin. All cells were grown in incubators set at 37° C., 5% CO2. Thiazolyl Blue Tetrazolium Bromide (MTT) based proliferation assays were performed to assess the anti-proliferative activities of the compounds on these cells. Cells were seeded in 96 well plates at a density of 750 cells/well 24 hours prior to compound treatment. The cells were incubated with varying concentrations of compounds for 120 hours. […] Drug treatment was performed in 5 replicate wells. Background absorbance was established by wells containing medium but no cells. Vehicle (DMSO) only was used as control. MTT (Sigma-Aldrich, St. Louis, Mo.) was added to each well at a final concentration of 0.5 mg/ml. Following a 2 hour incubation at 37° C., medium in the wells was replaced with 0.15 ml DMSO. The plates were agitated for 15 min using a microtiter plate shaker.

[2] = system: U-87 MG cells; experiment: MTT proliferation assay, glioblastoma U-87 MG; format: cell-based; conditions: Homo sapiens, Tumor Cell: Glioblastoma (U-87 MG), 120 hours, concentrations tested in microM
Text: as §1, §2

[3] = system: PC-3 cells; experiment: MTT proliferation assay, prostate adenocarcinoma PC-3; format: cell-based, Human; conditions: for IC50: Homo sapiens, Tumor Cell: Prostate (PC-3), MTT, 120 hours, concentrations tested in microM
Text: as §1, §2

[4] = system: cancer pathways; experiment: Screening of cancer pathways in human cells (PCA and phospho-immunofluorescence); format: cell-based; conditions: cancer pathway in which the drug was active; screened at 10 micromolar, HEK293 cells
Text: as §1
Immunofluorescence was performed on drug-treated cells using antibodies that specifically recognize phosphorylated forms of key signaling proteins. HEK293T cells were seeded in black-walled, poly-lysine coated 96-well plates (Greiner) at a density of 30,000/well. After 24 hours, cells in duplicate wells were treated with drugs. 100 ng/ml hEGF added to the cells during the last 5 min of drug treatment. The cells were rinsed once with PBS and fixed with 4% formaldehyde for 10 min. The cells were subsequently permeabilized with 0.25% Triton X-100 in PBS and incubated with 3% BSA for 30 min to block non-specific antibody binding. Each of the 4 sets of identically treated cells were then incubated with rabbit antibodies against phosphorylated CREB (Ser133), hsp27 (Ser82), pERK (T202/Y204) (Cell Signaling), or BSA in PBS. The cells were rinsed with PBS and incubated with Alexa488 conjugated goat anti-rabbit secondary antibody (Molecular Probes). Cell nuclei were stained with Hoechst33342 (Molecular Probes). Images were acquired using Discovery-1 High Content Imaging System (Molecular Devices). Background fluorescence due to nonspecific binding by the secondary antibody was established with the use of cells that were incubated with BSA/PBS and without primary antibodies. Fluorescence intensities were quantitated using Image J-based image analysis algorithm as described below.
Reporter fragments for PCA were generated by oligonucleotide synthesis (Blue Heron Biotechnology, Bothell, Wash.). First, oligonucleotides coding for polypeptide fragments YFP[1]and YFP[2] […] Next, PCR mutagenesis was used to generate the mutant fragments IFP[1] and IFP[2]. The IFP[1] fragment corresponds to YFP[1]-(F46L, F64L, M153T) and the IFP[2] fragment corresponds to YFP[2]-(V163A, S175G). […] The YFP[1], YFP[2], IFP[1] and IFP[2] fragments were amplified by PCR to incorporate restriction sites and a linker sequence, described below, in configurations that would allow fusion of a gene of interest to either the 5′- or 3′-end of each reporter fragment. The reporter-linker fragment cassettes were subcloned into a mammalian expression vector (pcDNA3.1Z, Invitrogen) that had been modified to incorporate the replication origin (oriP) of the Epstein Barr virus (EBV). […] Additionally, these vectors still retain the SV40 origin, allowing for episomal expression in cell lines expressing the SV40 large T antigen (e.g. HEK293T, Jurkat or COS). […] PCA fusion constructs were prepared for a large number of proteins known to participate in cellular pathways (Table 1 and Table 2). The full coding sequence for each gene of interest was amplified by PCR from a sequence-verified full-length cDNA.

[5] = system: A549 cells; experiment: MTT proliferation assay, non-small cell lung carcinoma A549; format: cell-based, Human; conditions: Homo sapiens, Tumor Cell: NSCLC (A549), concentrations tested in microM
Text: as §1, §2

[6] = system: LoVo cells; experiment: MTT proliferation assay, colon adenocarcinoma LoVo; format: cell-based; conditions: Homo sapiens, Tumor Cell: Colon (LoVo), 120 hours, concentrations tested in microM
Text: as §1, §2

[7] = system: cancer cells; experiment: Antiproliferative activity against cancer cells (cell line not stated); format: cell-based, human; conditions: general statement
Text: as §1
Cells were maintained in various media as follows: A549, LoVo and PC-3 (Ham's F12K medium with 2 mM L-glutamine and 1.5 g/L sodium bicarbonate), MIA PaCa-2 (Dulbecco's modified Eagle's medium with 4 mM L-glutamine and 4.5 g/L glucose), U87-MG (MEM+Earle's BSS). Medium for each cell line was supplemented with 10% FBS and […] Penecillin/Streptomycin. All cells were grown in incubators set at 37° C., 5% CO2. Thiazolyl Blue Tetrazolium Bromide (MTT) based proliferation assays were performed to assess the anti-proliferative activities of the compounds on these cells. Cells were seeded in 96 well plates at a density of 750 cells/well 24 hours prior to compound treatment. The cells were incubated with varying concentrations of compounds for 120 hours. Compound concentrations range from 0.03 to 100 microM (half log increments) except for alpha-Tomatine (0.001-100 microM, half log increments), Neriifolin (0.0002-100 microM) and Peruvoside (0.01-100 microM). Drug treatment was performed in 5 replicate wells. Background absorbance was established by wells containing medium but no cells. Vehicle (DMSO) only was used as control. MTT (Sigma-Aldrich, St. Louis, Mo.) was added to each well at a final concentration of 0.5 mg/ml. Following a 2 hour incubation at 37° C., medium in the wells was replaced with 0.15 ml DMSO. The plates were agitated for 15 min using a microtiter plate shaker. […] Mean absorbance values were calculated from 5 replicate wells of each drug treatment following subtraction of background absorbance from blank samples and plotted as a percentage of control.

Row | IC50 ([1]; MIA PaCa-2, 120 h) [nM] | IC50 [2] [nM] | IC50 [3] [nM] | IC50 ([5]; A549, 120 h) [nM] | IC50 [6] [nM] | Compound | Pathway Activity [4] | Antiproliferative activity against cancer cells [7] | IC50 ([1]; 120 hours) [nM] | IC50 ([5]; 120 hours) [nM] | Antiproliferative activity in the PC-3 assay ([3]; FIG. 1, compared to DMSO control)
1 | 3920 | 9020 | 11700 | 3950 | 2730 | COC(=O)[C@H]1[C@H]2C[C@H]3c4[nH]c5cc(OC)ccc5c4CCN3C[C@H]2C[C@@H](OC(=O)c2cc(OC)c(OC)c(OC)c2)[C@@H]1OC [Isoreserpine] | apoptosis | substantial antiproliferative activity | – | – | –
2 | – | 4600 | – | – | – | CC(C)c1c(C(=O)Nc2ccccc2)c(-c2ccccc2)c(-c2ccc(F)cc2)n1CC[C@@H](O)C[C@@H](O)CC(=O)O [Atorvastatin] | invasion/metastasis | substantial antiproliferative activity | – | – | –
3 | 1970 | – | – | 11900 | – | CN(C)CCCN1c2ccccc2Sc2ccccc21 [Promazine] | proliferation | substantial antiproliferative activity | – | – | –
4 | 22200 | – | – | 53800 | – | CC(CN1c2ccccc2Sc2ccccc21)N(C)C (stereo not shown) [Promethazine] | proliferation | substantial antiproliferative activity | – | – | –
5 | 770 | 860 | 630 | 230 | 1400 | CC1(C)CCC2=C(O1)c1ccccc1C(=O)C2=O [beta-Lapachone] | apoptosis | substantial antiproliferative activity | – | – | –
6 | 13900 | – | – | 29400 | – | O=C(CCCN1CC=C(n2c(=O)[nH]c3ccccc32)CC1)c1ccc(F)cc1 [Droperidol] | invasion/metastasis | substantial antiproliferative activity | – | – | –
7 | 590 | 810 | 1330 | 660 | 450 | O=C(Nc1ccc([N+](=O)[O-])cc1Cl)c1cc(Cl)ccc1O [Niclosamide] | apoptosis | substantial antiproliferative activity | – | – | –
8 | 20700 | – | – | 5700 | – | CN1C[C@H](CNC(=O)OCc2ccccc2)C[C@@H]2c3cccc4c3c(cn4C)C[C@H]21 [Melergoline] | invasion/metastasis | substantial antiproliferative activity | – | – | –

More lines, now with the values behind:

Row | Compound | IC50 ([1]; MIA PaCa-2, 120 h) [nM] | IC50 [2] [nM] | IC50 [3] [nM] | IC50 ([5]; A549, 120 h) [nM] | IC50 [6] [nM] | Pathway Activity [4] | Antiproliferative activity against cancer cells [7] | IC50 ([1]; 120 hours) [nM] | IC50 ([5]; 120 hours) [nM] | Antiproliferative activity in the PC-3 assay ([3]; FIG. 1, compared to DMSO control)
9 | CO[C@H]1[C@H](O)[C@H](O[C@H]2CC[C@@]3(C)[C@H](CC[C@@H]4[C@@H]3CC[C@]3(C)[C@@H](C5=CC(=O)OC5)CC[C@]43O)C2)O[C@@H](C)[C@@H]1O [Neriifolin] | – | – | – | – | – | invasion/metastasis | substantial antiproliferative activity | 3 | 6 | –
10 | CC(C)(C)c1ccc(C(O)CCCN2CCC(C(O)(c3ccccc3)c3ccccc3)CC2)cc1 (stereo not shown) [Terfenadine] | 350 | 380 | 1320 | 550 | 990 | invasion/metastasis | substantial antiproliferative activity | – | – | –
11 | CC(C)COCC(CN(Cc1ccccc1)c1ccccc1)N1CCCC1 (stereo not shown) [Bepridil] | 1580 | – | – | 4740 | – | invasion/metastasis | substantial antiproliferative activity | – | – | –
12 | Cc1cccc(Nc2cc(Cl)nc(SCC(=O)O)n2)c1C [WY-14643] | – | – | – | – | – | – | – | – | – | inactive
13 | Oc1ccc(Cl)cc1Cc1cc(Cl)ccc1O [Dichlorophene] | 25800 | – | – | 9830 | – | proliferation | substantial antiproliferative activity | – | – | –
14 | CCCSc1ccc2nc(NC(=O)OC)[nH]c2c1 [Albendazole] | – | – | – | – | – | invasion/metastasis | substantial antiproliferative activity | 140 | 280 | –

— patent US20060009506A1, “Drugs for the treatment of neoplastic disorders” (Odyssey Thera, Inc., priority 2004, published 2006)
